Test results reported in US12447170B2, “Use of maribavir in treatment regimens” (priority 2021, dated 2025).

Key:
[1] = Drug interaction summary: effect of co-administered drugs on maribavir pharmacokinetics (Tables 1-A, 1-B); settings: concomitant drug with maribavir; observed and predicted
Text: Drug interaction studies were summarized based on Example 2 and other available data (e.g., in vitro and clinical data).

[2] = Drug interaction summary: effect of maribavir 400 mg twice daily on co-administered drug pharmacokinetics (Tables 1-A, 1-C); assay type: in vivo, human; settings: for Effect on Concentration (of concomitant drug): concomitant drug with maribavir, observed and predicted; for Geometric Mean Ratio of co-administered drug PK with/without maribavir (No Effect = 1.00), AUC / Geometric Mean Ratio of co-administered drug PK with/without maribavir (No Effect = 1.00), Cmax: digoxin 0.5 mg single dose
[3] = set-up: species or system human; settings: in vivo
Text: Accumulated data have shown that maribavir is metabolized primarily in the liver, and renal clearance is a minor route (representing less than 5 percent). VP 44469 (N-dealkylated Maribavir) was the principal metabolite of maribavir in both urine and feces. In plasma, unchanged maribavir and VP 44469 represented approximately 69% and 9.8% of total radioactivity, respectively. The hepatic metabolism of maribavir was primarily driven by cytochrome P450s. CYP3A4 and CYP1A2 were responsible for 70 to 85% and 15 to 30% of the CYP-driven pathways, respectively. Glucuronidation accounted for less than 20% of metabolism.
Distribution models evaluated included a full PBPK model and a minimal PBPK model, both of which consider liver and intestinal metabolism. Mass balance data from the [^14C] ADME study indicated a fraction absorbed of 0.83 or greater following oral administration of 400 mg dose of maribavir. Absorption models evaluated included a simple first-order absorption model and a more mechanistic “Advanced Dissolution Absorption and Metabolism” (ADAM) model.

[4] = in the presence of 400 mg twice daily maribavir, tacrolimus stable dose twice daily

## NC(=O)N1c2ccccc2C=Cc2ccccc21 [Carbamazepine, reference compound]
[1]
  Effect on Concentration (of maribavir): ↓Maribavir

## CO[C@H]1C[C@@H]2CC[C@@H](C)[C@@](O)(O2)C(=O)C(=O)N2CCCC[C@H]2C(=O)O[C@H]([C@H](C)C[C@@H]2CC[C@@H](OCCO)[C@H](OC)C2)CC(=O)[C@H](C)/C=C(\C)[C@@H](O)[C@@H](OC)C(=O)[C@H](C)C[C@H](C)/C=C/C=C/C=C/1C [Everolimus]
[2]
  Effect on Concentration (of concomitant drug): ↑Everolimus

## CCC1(c2ccccc2)C(=O)NC(=O)NC1=O [Phenobarbital, reference compound]
[1]
  Effect on Concentration (of maribavir): ↓Maribavir

## O=C1NC(=O)C(c2ccccc2)(c2ccccc2)N1 [Phenytoin, reference compound]
[1]
  Effect on Concentration (of maribavir): ↓Maribavir

## CO[C@H]1/C=C/O[C@@]2(C)Oc3c(C)c(O)c4c(c3C2=O)C2=NC3(CCN(CC(C)C)CC3)NC2=C(NC(=O)/C(C)=C\C=C\[C@H](C)[C@H](O)[C@@H](C)[C@@H](O)[C@@H](C)[C@H](OC(C)=O)[C@@H]1C)C4=O [Rifabutin, reference compound]
[1]
  Effect on Concentration (of maribavir): ↓Maribavir

## CO[C@H]1/C=C/O[C@@]2(C)Oc3c(C)c(O)c4c(O)c(c(/C=N/N5CCN(C)CC5)c(O)c4c3C2=O)NC(=O)/C(C)=C\C=C\[C@H](C)[C@H](O)[C@@H](C)[C@@H](O)[C@@H](C)[C@H](OC(C)=O)[C@@H]1C [Rifampin, reference compound]
[1]
  Effect on Concentration (of maribavir): ↓Maribavir

## CO[C@H]1C[C@@H]2CC[C@@H](C)[C@@](O)(O2)C(=O)C(=O)N2CCCC[C@H]2C(=O)O[C@H]([C@H](C)C[C@@H]2CC[C@@H](O)[C@H](OC)C2)CC(=O)[C@H](C)/C=C(\C)[C@@H](O)[C@@H](OC)C(=O)[C@H](C)C[C@H](C)/C=C/C=C/C=C/1C [Sirolimus]
[2]
  Effect on Concentration (of concomitant drug): ↑Sirolimus

## C=CC[C@@H]1/C=C(\C)C[C@H](C)C[C@H](OC)[C@H]2O[C@@](O)(C(=O)C(=O)N3CCCC[C@H]3C(=O)O[C@H](/C(C)=C/[C@@H]3CC[C@@H](O)[C@H](OC)C3)[C@H](C)[C@@H](O)CC1=O)[C@H](C)C[C@@H]2OC [Tacrolimus]
[2]; co-administration with maribavir
  increase of tacrolimus exposure by maribavir: 51%
[2]
  Effect on Concentration (of concomitant drug): ↑Tacrolimus
[2]; [4]
  Geometric Mean Ratio of co-administered drug PK with/without maribavir (No Effect = 1.00), Ctrough: 1.57
  Geometric Mean Ratio of co-administered drug PK with/without maribavir (No Effect = 1.00), AUC: 1.51
  Geometric Mean Ratio of co-administered drug PK with/without maribavir (No Effect = 1.00), Cmax: 1.38

## Nc1nc2cc(Cl)c(Cl)cc2n1[C@H]1O[C@@H](CO)[C@H](O)[C@@H]1O [VP 44469, N-dealkylated Maribavir]
[3]
  share of total radioactivity in plasma: ~9.8%

## C[C@H]1O[C@@H](O[C@H]2[C@@H](O)C[C@H](O[C@H]3[C@@H](O)C[C@H](O[C@H]4CC[C@@]5(C)[C@H](CC[C@@H]6[C@@H]5C[C@@H](O)[C@]5(C)[C@@H](C7=CC(=O)OC7)CC[C@]65O)C4)O[C@@H]3C)O[C@@H]2C)C[C@H](O)[C@@H]1O [digoxin]
[2]
  Effect on Concentration (of concomitant drug): ↑digoxin
[2]; [4]
  Geometric Mean Ratio of co-administered drug PK with/without maribavir (No Effect = 1.00), AUC: 1.21
  Geometric Mean Ratio of co-administered drug PK with/without maribavir (No Effect = 1.00), Cmax: 1.25
